The test concerns Plasmodium berghei. Kind of test: Luciferase/luciferin-expressing antifolate-resistant parasites were used to infect a culture of HepG2 cells that were pre-incubated with compounds. Infected hepatocytes emit light due to the luciferase reaction. Assay results are presented as the percent inhibition of light emission compared to control. […]. In kind it is functional. Particulars: sporozoite; for IC90: read-out: LUCIFERASE INFECTION ASSAY - IC90.

Setting [1] is: read-out: LUCIFERASE INFECTION ASSAY - IC50.

SMILES strings stand for the structures.

As usually defined, the IC50 is the point on the concentration scale where inhibition reaches its midpoint. The IC90 is the concentration at which the effect reaches the 90% level. For `O=C(Nc1ccc(SC(F)(F)F)cc1)Nc1cccnc1N1CCC(C(F)(F)F)CC1`, the 90% effect concentration (IC90) was 2.33 µM. For the setting “HEPG2TOX_HILL_SLOPE 11.5, HEPG2TOX_R_SQUARED 0.688, PBLUC_HILL_SLOPE 15.9, PBLUC_R_SQUARED 0.276, read-out: LUCIFERASE INFECTION ASSAY - IC50”, the IC50 stood at 2.03 µM.
In the case of `Cc1ccc(S(=O)(=O)c2nc(-c3ccccc3)oc2S(=O)(=O)CC(=O)NC(C)C)cc1`, the IC90 was above 10 µM. Under setting [1], the IC50 is above 10 µM.
`COc1ccc(COC(=O)c2sc3nc4n(c(=O)c3c2C)CCC4)cc1F`: the IC90 was above 10 µM. Further, the IC50 (PBLUC_HILL_SLOPE 15.9, PBLUC_R_SQUARED 0.0512, read-out: LUCIFERASE INFECTION ASSAY - IC50) came out at 9.36 µM.
On to `Cc1cc(O)c(C(C)C)cc1NC1=NC(=O)S/C1=C\c1ccccc1OCC(=O)Nc1ccc(Cl)cc1`, for which the IC90 turned out to be 9.08 µM. Also, the IC50 (FFLUC_HILL_SLOPE 1.8, FFLUC_R_SQUARED 0.548, PBLUC_HILL_SLOPE 29.3, PBLUC_R_SQUARED 0.485, read-out: LUCIFERASE INFECTION ASSAY - IC50) stood at 8.43 µM.
With `O=C(Nc1nc(-c2ccccn2)cs1)c1ccc(=O)n(Cc2ccccc2)n1`, the concentration for an effect of 90% (IC90) amounted to 9.95 µM. The IC50 (PBLUC_HILL_SLOPE 15.2, PBLUC_R_SQUARED 0.0748, read-out: LUCIFERASE INFECTION ASSAY - IC50) turned out to be 8.61 µM.
With `O=C(COC(=O)/C=C/c1cn(-c2ccccc2)nc1-c1ccc(Cl)cc1)NC(=O)NC1CCCC1`, the IC90 is above 10 µM. Moreover, the IC50 under setting [1] came to 9.03 µM.
Take `O=C(Nc1ccc2c(c1)OCO2)C1CCN(c2ccnc3cc(Cl)ccc23)CC1`: the IC90 came to 8.1 µM. Also, the half-maximal inhibitory concentration (IC50) (HEPG2TOX_HILL_SLOPE 0.967, HEPG2TOX_R_SQUARED 0.942, PBLUC_HILL_SLOPE 2.72, PBLUC_R_SQUARED 0.6, read-out: LUCIFERASE INFECTION ASSAY - IC50) stood at 3.61 µM.
Regarding `Cc1c(Cl)c(CN2C(=O)C(=O)N(Cc3cccs3)C2=O)nc2ccccc12`, the concentration for an effect of 90% (IC90) is above 10 µM. The concentration for half-maximal inhibition (IC50) under setting [1] was above 10 µM.
Turning to `C=CCn1c(C)cc(C(=O)CNC(=O)Nc2ccccc2)c1C`, the IC90 was above 10 µM. For the same compound, under “HEPG2TOX_HILL_SLOPE 12.5, HEPG2TOX_R_SQUARED 0.766, PBLUC_HILL_SLOPE 0.462, PBLUC_R_SQUARED 0.648, read-out: LUCIFERASE INFECTION ASSAY - IC50”, the IC50 is 0.495 µM.
As for `CCOc1ccc(CCC2CCN(C(=O)Cn3c(=O)[nH]c(=O)c4ccccc43)CC2)cc1`, the concentration for an effect of 90% (IC90) was above 10 µM. For the same compound, where the note is “HEPG2TOX_HILL_SLOPE 1.65, HEPG2TOX_R_SQUARED 0.957, PBLUC_HILL_SLOPE 2.43, PBLUC_R_SQUARED 0.244, read-out: LUCIFERASE INFECTION ASSAY - IC50”, the IC50 was found to be 5.37 µM.
Turning to `CNC(=S)Nc1cc(C(F)(F)F)cc(C(F)(F)F)c1`, the IC90 amounted to 8.33 µM. The IC50 (PBLUC_HILL_SLOPE 3.27, PBLUC_R_SQUARED 0.572, read-out: LUCIFERASE INFECTION ASSAY - IC50) was found to be 4.26 µM.
Consider `CN(C)c1ccccc1-c1cn2c(-c3cccc(O)c3)cnc2cn1`, for which the IC90 is above 9.99 µM. In addition, the concentration for half-maximal inhibition (IC50) under setting [1] was above 9.99 µM.
As for `Cc1ccc2nc(NC(=O)c3ccc(F)cc3F)c(C(=O)NC3CCCC3)n2c1`, the IC90 came to 2.97 µM. Also, under “HEPG2TOX_HILL_SLOPE 1.63, HEPG2TOX_R_SQUARED 0.945, PBLUC_HILL_SLOPE 15.6, PBLUC_R_SQUARED 0.398, read-out: LUCIFERASE INFECTION ASSAY - IC50”, the IC50 is 2.58 µM.
For the compound `O=C(Cc1csc(-c2ncccn2)n1)Oc1ccc(N2CCCC2=O)cc1`, the concentration for an effect of 90% (IC90) is above 10 µM. In addition, under setting [1], the concentration for half-maximal inhibition (IC50) is above 10 µM.
Turning to `Cc1cccc(OCCNC(=O)c2cc(S(=O)(=O)N3CCOCC3)ccc2N2CCOCC2)c1`, the IC90 is above 10 µM. The IC50 (HEPG2TOX_HILL_SLOPE 6.77, HEPG2TOX_R_SQUARED 0.742, read-out: LUCIFERASE INFECTION ASSAY - IC50) is above 10 µM.
On to `CC1CCc2nc(/C(C#N)=C/c3ccccc3OC(F)F)sc2C1` (centres undefined), for which the concentration for an effect of 90% (IC90) came to 3.92 µM. For the same compound, the 50% inhibitory concentration (IC50) (FFLUC_HILL_SLOPE 11.1, FFLUC_R_SQUARED 0.825, PBLUC_HILL_SLOPE 3.87, PBLUC_R_SQUARED 0.911, read-out: LUCIFERASE INFECTION ASSAY - IC50) is 2.22 µM.
Take `CC(C)c1cc(N(c2ccc(Br)cc2)S(=O)(=O)c2ccc(Cl)cc2)cc(C(C)C)c1O`: the IC90 was above 10 µM. Besides, under “FFLUC_HILL_SLOPE 3.1, FFLUC_R_SQUARED 0.697, PBLUC_HILL_SLOPE 9.64, PBLUC_R_SQUARED 0.214, read-out: LUCIFERASE INFECTION ASSAY - IC50”, the IC50 came out at 8.66 µM.
Regarding `O=c1cc(CSc2nc3ccccc3s2)[nH]c2nc3ccccc3n12`, the IC90 is 3.5 µM. Further, for the setting “PBLUC_HILL_SLOPE 13.4, PBLUC_R_SQUARED 0.218, read-out: LUCIFERASE INFECTION ASSAY - IC50”, the half-maximal inhibitory concentration (IC50) turned out to be 2.97 µM.
With `CS(=O)(=O)NC1CCN(c2nc(-c3ccccn3)nc3sc(-c4ccccc4)cc23)CC1`, the IC90 came to 3.42 µM. The IC50 (PBLUC_HILL_SLOPE 90.2, PBLUC_R_SQUARED 0.429, read-out: LUCIFERASE INFECTION ASSAY - IC50) worked out at 3.34 µM.
For `Cc1cccc(C=C(C(=O)NC(C)c2ccccc2)C(=O)NC(C)c2ccccc2)c1` (centres undefined), the 90% effect concentration (IC90) amounted to 8.3 µM. For the same compound, the IC50 (HEPG2TOX_HILL_SLOPE 105, HEPG2TOX_R_SQUARED 0.565, PBLUC_HILL_SLOPE 4.68, PBLUC_R_SQUARED 0.0675, read-out: LUCIFERASE INFECTION ASSAY - IC50) was found to be 5.19 µM.
`Cc1onc(-c2ccccc2)c1-c1csc(-c2ccc(Oc3ccc(C(F)(F)F)cn3)cc2)n1`: the IC90 stood at 2.83 µM. Moreover, where the note is “HEPG2TOX_HILL_SLOPE 12.3, HEPG2TOX_R_SQUARED 0.647, PBLUC_HILL_SLOPE 12.5, PBLUC_R_SQUARED 0.454, read-out: LUCIFERASE INFECTION ASSAY - IC50”, the half-maximal inhibitory concentration (IC50) came to 2.37 µM.
With `CC(C)c1ccc(CN(C(=O)Cc2c[nH]c3ccccc23)C2CC2)cc1`, the concentration for an effect of 90% (IC90) is above 10 µM. The IC50 (PBLUC_HILL_SLOPE 3.49, PBLUC_R_SQUARED 0.314, read-out: LUCIFERASE INFECTION ASSAY - IC50) was above 10 µM.
For the compound `O=C(Nc1ccc(OC(F)(F)F)cc1)Nc1cc(-c2ccco2)n[nH]1`, the IC90 is above 9.37 µM. Also, the IC50 (PBLUC_HILL_SLOPE 2.58, PBLUC_R_SQUARED 0.157, read-out: LUCIFERASE INFECTION ASSAY - IC50) is 7.52 µM.
`O/N=C1\CC(c2ccccc2)Sc2ccccc21` (centres undefined): the IC90 is above 12.9 µM. Further, the IC50 (PBLUC_HILL_SLOPE 0.783, PBLUC_R_SQUARED 0.658, read-out: LUCIFERASE INFECTION ASSAY - IC50) was found to be 3.88 µM.
For `CC(C)Cn1c(=O)n(C)c(=O)c2c(SCC#N)nc(CC(C)(C)C)nc21`, the IC90 is above 10 µM. Besides, under setting [1], the IC50 was above 10 µM.
With `Cc1ccc(Cn2nc(C)c3cc(C(=O)N4CCN(c5ncccn5)CC4)sc32)cc1`, the concentration for an effect of 90% (IC90) is above 10 µM. The IC50 under setting [1] was above 10 µM.
As for `COc1cccc(-c2cnc(N)c(-c3ccc(O)c(OC)c3)c2)c1`, the IC90 came to 7.28 µM. Also, the half-maximal inhibitory concentration (IC50) (FFLUC_HILL_SLOPE 0.591, FFLUC_R_SQUARED 0.281, PBLUC_HILL_SLOPE 3.73, PBLUC_R_SQUARED 0.478, read-out: LUCIFERASE INFECTION ASSAY - IC50) worked out at 4.04 µM.
Turning to `Cc1ccc(NC(=O)c2ccc(Cl)c(NC(=O)c3cccs3)c2)cc1`, the IC90 was above 8.9 µM. Further, the 50% inhibitory concentration (IC50) under setting [1] was above 8.9 µM.
Consider `O=C(Nc1cc(Cl)cc(Cl)c1)Nc1cccnc1N1CCC(C(F)(F)F)CC1`, for which the IC90 was 2.83 µM. The half-inhibitory concentration (IC50) (HEPG2TOX_HILL_SLOPE 11.8, HEPG2TOX_R_SQUARED 0.784, PBLUC_HILL_SLOPE 19.7, PBLUC_R_SQUARED 0.439, read-out: LUCIFERASE INFECTION ASSAY - IC50) came out at 2.53 µM.
Take `CCC1CCCCN1CC(O)COC(c1ccc(Cl)cc1)c1ccc(Cl)cc1` (centres undefined): the IC90 is above 10 µM. In addition, the IC50 (PBLUC_HILL_SLOPE 1.73, PBLUC_R_SQUARED 0.487, read-out: LUCIFERASE INFECTION ASSAY - IC50) was 5.6 µM.
Turning to `Cc1nc(N2N=C3/C(=C/c4ccc(F)cc4)CCCC3C2c2ccc(F)cc2)sc1C(=O)O` (centres undefined), the concentration for an effect of 90% (IC90) was above 10 µM. Also, the IC50 (FFLUC_HILL_SLOPE 19.4, FFLUC_R_SQUARED 0.522, read-out: LUCIFERASE INFECTION ASSAY - IC50) is above 10 µM.
For `O=C(CN1CCCc2ccccc21)NC(=O)NCc1ccccc1`, the 90% effect concentration (IC90) was found to be 7.44 µM. In addition, the IC50 (PBLUC_HILL_SLOPE 112, PBLUC_R_SQUARED 0.458, read-out: LUCIFERASE INFECTION ASSAY - IC50) was 7.29 µM.
Consider `Oc1ccc(CN2CCN(c3ccccn3)CC2)c2cccnc12`, for which the 90% effect concentration (IC90) is above 10 µM. Besides, the concentration for half-maximal inhibition (IC50) (HEPG2TOX_HILL_SLOPE 1.46, HEPG2TOX_R_SQUARED 0.941, PBLUC_HILL_SLOPE 3.25, PBLUC_R_SQUARED 0.21, read-out: LUCIFERASE INFECTION ASSAY - IC50) amounted to 7.97 µM.
Consider `COc1ccc2c(c1)nnc1nnc(SCC(=O)N3CCOCC3)n12`, for which the concentration for an effect of 90% (IC90) is above 9.16 µM. Also, under setting [1], the half-maximal inhibitory concentration (IC50) is above 9.16 µM.
Take `CC(=O)N1CCN(S(=O)(=O)c2cccc(C(=O)OCC(=O)c3ccc4c(c3)-c3ccccc3C4)c2)CC1`: the IC90 is above 10 µM. Further, the IC50 under setting [1] was above 10 µM.
Regarding `Fc1ccc(COc2ccc3ccccc3c2CNCc2ccccn2)cc1`, the IC90 was above 8.86 µM. Also, the half-maximal inhibitory concentration (IC50) (PBLUC_HILL_SLOPE 18.6, PBLUC_R_SQUARED 0.616, read-out: LUCIFERASE INFECTION ASSAY - IC50) came out at 8.21 µM.
`CCOC(=O)c1sc(N(NC(=O)c2ccc(Cl)cc2)C(=O)c2ccc(Cl)cc2)c2c1CC(C)(C)CC2=O`: the IC90 amounted to 2.02 µM. Also, the IC50 under setting [1] was determined as 1.81 µM.

Values taken from ChEMBL document CHEMBL4483862, “Open-source discovery of chemical leads for next-generation chemoprotective antimalarials” (2018).
